Columns and labels:
Type in all cases: in vivo
[1] = tested on: aggressive behaviour in mice; assay: Aggressive behaviour in isolated male mice (antiaggressivity); conditions: Mus musculus, ip, dose which reduces aggressiveness score by 50%, read-out: Antiaggressive behaviour in mice ED50
Experimental: Potential anxiolytic activity is tested by measuring the antiaggressivity in isolated mice after administration of the test substance. In this test not amphetamine but Valium -- a well-known anxiolytic substance -- is used as a reference.
Aggressive behaviour in mice
Male mice kept isolated for 3 weeks or longer develop an aggressive behavior when caged together. The method used follows that of Valzelli et al. (Europ. J. Pharmacol. 2, 144, 1967), with the exception that 2 mice were tested on each other. The aggressiveness was scored during a 5 min test according to the following schedule:
0 the animals show no interest in each other except occasional nosing
25 frequent vigorous nosing and tail rattling, the animals assume a fighting position and occassionally attack each other -- no more than 3-4 times in the 5 min period
50 tail rattling, powerful attacks -- no more than 10 times in the test period
75 the animals follow their partners, attacking and biting for most of the time
100 attacks over the entire period.
The animals were used for several experiments but with intervals of at least one week. Groups of 10 mice were used.
ED50 is the dose which reduces the aggressiveness score by 50%.

[2] = tested on: syndromes produced by 5-hydroxytryptophan (5-HTP); assay: 5-HTP response potentiation test; conditions: Mus musculus, ip; mice; before dl-5-HTP 90 mg/kg i.v.
Description: It is not possible by experimental means to induce depressions in laboratory animals. In order to evaluate a possible anti depressive effect on new substances biochemical-pharmacological test methods must be resorted to. One such method, which seems to give a good indication of the potential anti depressive effects of the test substances, is described in Europ. J. Pharmacol. 17, 107, 1972. This method involves the measurement of the potentiation of the syndromes produced by 5-hydroxytryptophan (5-HTP) in a laboratory animal.
5-HTP response potantiation test
Inhibition of the uptake of 5-HT potentiates the effects of administered 5-hydroxytryptophan (5-HTP) probably by increasing the amount of 5-HT at the receptor. Three mice are given the test drugs 1 hour (or 4, 24 hours) before dl-5-HTP, 90 mg/kg i.v. 5-HTP alone gives only a weak behavioural syndrome but in pretreated mice there is seen a characteristic behavioural syndrome, which comes within five minutes: tremor, lordosis, abduction of the hindlegs, head-twitches.
The absence or presence of respective syndrome is scored in groups of ten mice. The compound was administered in at least five doses and the quantal responses were analysed by probit analysis and ED50 determined according to the method of Litchfield and Wilcoxon.

motor activity in mice = assay: Motor activity in mice (exploratory activity in locomotion cage); design: key to Motor Activity (+ = increase, - = decrease, 0 = no effect): + = increase; - = decrease; 0 = no effect; conditions: for Motor Activity (+ = increase, - = decrease, 0 = no effect): recorded for ten minutes one hour after administration, compared to control groups
Experimental: The lack of euphoric effects, that is lack of central stimulatory activity, is tested by measuring the motor activity in mice after administration of the test substance.
The exploratory activity of mice was recorded in a locomotion cage in which the movements were counted each time the animals cross-circuits an electrical current in the bottom plate. The activity was recorded for ten minutes one hour after the administration of the drug. The animals were tested individually. Groups of six mice were used and the mice were only used once. The activity was expressed in per cent of the activity of control groups ran simultaneously. The compounds were administered in at least four doses. The increase (+) or decrease (-) of the activity compared to control groups was determined from log dose response curves.

SMILES: CN1C(=O)CN=C(c2ccccc2)c2cc(Cl)ccc21 [Valium, reference compound]
- ED50 [1]: 2.5 mg/kg

SMILES: CCC(N)Cc1ccc(N(C)C)cc1Cl (centres unmarked) [H 2-Cl CH3 CH3 H C2 H5]
- ED50 [2]: 0.25 mg/kg
- Motor Activity (+ = increase, - = decrease, 0 = no effect) (motor activity in mice): 0

SMILES: CC(N)Cc1ccc(N(C)C)cc1Cl.Cl.Cl (centres unmarked) [H 2-Cl CH3 CH3 H CH3]
- ED50 [2]: 0.25 mg/kg
- Motor Activity (+ = increase, - = decrease, 0 = no effect) (motor activity in mice): -
- ED50 [1]: 2.5 to 5 mg/kg

SMILES: CCN(C)c1ccc(CC(C)N)cc1 (centres unmarked) [H H C2 H5 CH3 H CH3]
- ED50 [2]: 0.7 mg/kg
- ED50 [1]: < 5 mg/kg

SMILES: CC(N)Cc1ccc(N(C)C)cc1Br.Cl.Cl (centres unmarked) [H 2-Br CH3 CH3 H CH3]
- ED50 [2]: 0.1 mg/kg

SMILES: Cc1cc(N(C)C)ccc1CC(C)N.Cl.Cl (centres unmarked) [H 2-CH3 CH3 CH3 H CH3]
- ED50 [2]: 0.6 mg/kg
- Motor Activity (+ = increase, - = decrease, 0 = no effect) (motor activity in mice): -
- ED50 [1]: 2.5 to 5 mg/kg

SMILES: CC(N)Cc1ccc(Cl)cc1 (centres unmarked) [p-Chloroamphetamine, reference compound]
- ED50 [2]: 0.8 mg/kg
- central stimulation (in words) (motor activity in mice): pronounced
- ED50 [1]: 0.3 mg/kg

SMILES: CN(C)c1ccc(CC(C)(C)N)cc1.Cl.Cl [H H CH3 CH3 CH3 CH3]
- ED50 [2]: 2.5 mg/kg
- Motor Activity (+ = increase, - = decrease, 0 = no effect) (motor activity in mice): 0

SMILES: CC(N)Cc1ccc(N(C)C)c(Br)c1.Cl.Cl (centres unmarked) [H 3-Br CH3 CH3 H CH3]
- ED50 [2]: 1 mg/kg
- ED50 [1]: > 5 mg/kg

SMILES: CC(N)Cc1ccc2c(c1)CCCN2C.Cl.Cl (centres unmarked) [H H CH3 (CH2)3 H CH3, 6-(2-AMINOPROPYL)-1-METHYL-1, 2, 3, 4-TETRAHYDROQUINOLINE DIHYDROCHLORIDE]
- ED50 [2]: 1.5 mg/kg
- ED50 [1]: > 5 mg/kg

SMILES: CCNc1ccc(CC(C)N)cc1.Cl.Cl (centres unmarked) [H H C2 H5 H H CH3]
- ED50 [2]: 1 mg/kg
- ED50 [1]: 1.25 mg/kg

SMILES: CC(N)Cc1ccccc1 (centres unmarked) [Amphetamine]
- ED50 [2]: > 5 mg/kg
- central stimulation (in words) (motor activity in mice): pronounced

SMILES: CC(N)Cc1c(Cl)cc(N(C)C)cc1Cl.Cl.Cl (centres unmarked) [2-Cl 6-Cl CH3 CH3 H CH3]
- ED50 [2]: 0.1 mg/kg
- Motor Activity (+ = increase, - = decrease, 0 = no effect) (motor activity in mice): -
- ED50 [1]: > 5 mg/kg

SMILES: CCN(CC)c1ccc(CC(C)N)cc1 (centres unmarked) [H H C2 H5 C2 H5 H CH3]
- ED50 [2]: 2 mg/kg
- Motor Activity (+ = increase, - = decrease, 0 = no effect) (motor activity in mice): -
- ED50 [1]: 5 to 10 mg/kg

SMILES: CC(N)Cc1ccc(N)cc1 (centres unmarked) [p-Aminoamphetamine, reference compound]
- ED50 [2]: 11.5 mg/kg
